In the NIST ThermoML archive (doi:10.1016/j.fluid.2007.11.005):
Numbers after ± are expanded uncertainties.

Conditions: Liquid, Bellows volumetry

CCCCn1cc[n+](C)c1.F[P-](F)(F)(F)(F)F [1-butyl-3-methylimidazolium hexafluorophosphate]
mass density [kg/m3]
Conditions | 312.8 K | 332.6 K | 353.2 K | 372.7 K | 392.8 K | 412.8 K | 432.6 K | 452.5 K | 472.3 K
100 kPa | 1352 ± 4 | – | – | – | – | – | – | – | –
10000 kPa | 1358 ± 4 | 1342 ± 3 | 1325 ± 3 | 1310 ± 3 | 1299 ± 3 | 1284 ± 3 | 1269 ± 3 | 1254 ± 3 | 1240 ± 3
20000 kPa | 1363 ± 4 | 1347 ± 4 | 1332 ± 3 | 1317 ± 3 | 1305 ± 3 | 1290 ± 3 | 1276 ± 3 | 1262 ± 3 | 1248 ± 3
30000 kPa | 1368 ± 4 | 1353 ± 4 | 1338 ± 3 | 1323 ± 3 | 1311 ± 3 | 1297 ± 3 | 1283 ± 3 | 1269 ± 3 | 1256 ± 3
40000 kPa | 1373 ± 4 | 1358 ± 4 | 1343 ± 3 | 1329 ± 3 | 1317 ± 3 | 1303 ± 3 | 1290 ± 3 | 1276 ± 3 | 1263 ± 3
50000 kPa | 1378 ± 4 | 1363 ± 4 | 1349 ± 4 | 1334 ± 3 | 1323 ± 3 | 1309 ± 3 | 1296 ± 3 | 1283 ± 3 | 1270 ± 3
60000 kPa | 1383 ± 4 | 1368 ± 4 | 1354 ± 4 | 1339 ± 3 | 1329 ± 3 | 1315 ± 3 | 1302 ± 3 | 1289 ± 3 | 1276 ± 3
70000 kPa | 1388 ± 4 | 1373 ± 4 | 1359 ± 4 | 1345 ± 4 | 1334 ± 3 | 1321 ± 3 | 1308 ± 3 | 1295 ± 3 | 1282 ± 3
80000 kPa | 1392 ± 4 | 1378 ± 4 | 1364 ± 4 | 1350 ± 4 | 1339 ± 3 | 1326 ± 3 | 1313 ± 3 | 1301 ± 3 | 1289 ± 3
90000 kPa | 1396 ± 4 | 1382 ± 4 | 1368 ± 4 | 1355 ± 4 | 1344 ± 4 | 1331 ± 3 | 1319 ± 3 | 1306 ± 3 | 1294 ± 3
100000 kPa | 1400 ± 4 | 1387 ± 4 | 1373 ± 4 | 1360 ± 4 | 1349 ± 4 | 1336 ± 3 | 1324 ± 3 | 1312 ± 3 | 1300 ± 3
110000 kPa | 1405 ± 4 | 1391 ± 4 | 1377 ± 4 | 1364 ± 4 | 1354 ± 4 | 1341 ± 4 | 1329 ± 3 | 1317 ± 3 | 1305 ± 3
120000 kPa | 1409 ± 4 | 1395 ± 4 | 1382 ± 4 | 1369 ± 4 | 1359 ± 4 | 1346 ± 4 | 1334 ± 3 | 1322 ± 3 | 1311 ± 3
130000 kPa | 1412 ± 4 | 1399 ± 4 | 1386 ± 4 | 1373 ± 4 | 1363 ± 4 | 1351 ± 4 | 1339 ± 4 | 1327 ± 3 | 1316 ± 3
140000 kPa | 1416 ± 4 | 1403 ± 4 | 1390 ± 4 | 1377 ± 4 | 1367 ± 4 | 1355 ± 4 | 1343 ± 4 | 1332 ± 3 | 1320 ± 3
150000 kPa | 1420 ± 4 | 1407 ± 4 | 1394 ± 4 | 1381 ± 4 | 1372 ± 4 | 1360 ± 4 | 1348 ± 4 | 1336 ± 4 | 1325 ± 3
160000 kPa | 1424 ± 4 | 1411 ± 4 | 1398 ± 4 | 1385 ± 4 | 1376 ± 4 | 1364 ± 4 | 1352 ± 4 | 1341 ± 4 | 1330 ± 4
170000 kPa | 1427 ± 4 | 1415 ± 4 | 1402 ± 4 | 1389 ± 4 | 1380 ± 4 | 1368 ± 4 | 1357 ± 4 | 1345 ± 4 | 1334 ± 4
180000 kPa | 1431 ± 4 | 1418 ± 4 | 1405 ± 4 | 1393 ± 4 | 1384 ± 4 | 1372 ± 4 | 1361 ± 4 | 1350 ± 4 | 1339 ± 4
190000 kPa | 1435 ± 4 | 1422 ± 4 | 1409 ± 4 | 1397 ± 4 | 1388 ± 4 | 1376 ± 4 | 1365 ± 4 | 1354 ± 4 | 1343 ± 4
200000 kPa | 1438 ± 4 | 1425 ± 4 | 1413 ± 4 | 1401 ± 4 | 1392 ± 4 | 1380 ± 4 | 1369 ± 4 | 1358 ± 4 | 1347 ± 4
